Measured values as given in US20060280894A1, “Metal complexes as light-absorbing compounds in the information layer of optical data carriers” (priority 2003, published 2006).
Read-outs that look alike come from different tables or passages of the source. Marks after values point to notes of the source that are not given here.

Experiment: Absorption spectrum measured in solution
[1] = molar extinction coefficient at λmax, solvent as given for λmax

Which λmax (in methylene chloride) does the source give for CCN(CC)c1ccc(N=Nc2nnc(C)s2)c([N]([Co][N](c2cc(N(CC)CC)ccc2N=Nc2nnc(C)s2)S(=O)(=O)N(C)C)S(=O)(=O)N(C)C)c1 [Example 30] here?
The λmax was 554 nm.

With CCN(CC)c1cc([N]([Co][N](c2cc(N(CC)CC)c(C)cc2N=Nc2nc(-c3ccccc3)ns2)S(=O)(=O)N(C)C)S(=O)(=O)N(C)C)c(N=Nc2nc(-c3ccccc3)ns2)cc1C [Example 38] as the molecule, how does the λmax read?
The λmax was 554^5) nm.

With CCN(CC)c1ccc(N=Nc2nc(C#N)c(C#N)n2C)c([N-]P(=O)(OCC(F)(F)C(F)F)OCC(F)(F)C(F)F)c1.CCN(CC)c1ccc(N=Nc2nc(C#N)c(C#N)n2C)c([N-]P(=O)(OCC(F)(F)C(F)F)OCC(F)(F)C(F)F)c1.[Cu+2] [Example 4] as the molecule, how does the ε read?
The ε was 88071 L/mol/cm.

And the λ1/2-λ1/10?
Its λ1/2-λ1/10 is 29 nm.

And the λmax?
Its λmax is 533^5) nm.

Which results are given for CCN(CC)c1ccc(N=Nc2nc(C#N)c(C#N)n2C)c([N-]S(=O)(=O)N(C)C)c1.CCN(CC)c1ccc(N=Nc2nc(C#N)c(C#N)n2C)c([N-]S(=O)(=O)N(C)C)c1.[Zn+2] [Example 17]?
ε: 111931 L/mol/cm; λ1/2-λ1/10: 12 nm

With CCN(CC)c1cc([N]([Ni][N](c2cc(N(CC)CC)c(C)cc2N=Nc2nc(-c3ccccc3)ns2)S(=O)(=O)N(C)C)S(=O)(=O)N(C)C)c(N=Nc2nc(-c3ccccc3)ns2)cc1C [Example 36] as the molecule, how does the λmax read?
Its λmax is 552^5) nm.

Which λmax (in methylene chloride) does the source give for CCN(CC)c1ccc(N=Nc2nnc(C)s2)c([N]([Ni][N](c2cc(N(CC)CC)ccc2N=Nc2nnc(C)s2)S(=O)(=O)N(C)C)S(=O)(=O)N(C)C)c1 [Example 29] here?
Its λmax is 554 nm.

And the ε [1]?
Its ε is 84070 L/mol/cm.

What about the λ1/2-λ1/10 (on the long wavelength flank) of the same molecule?
The λ1/2-λ1/10 was 26 nm.

For CCN(CC)c1ccc(N=Nc2nc(C#N)c(C#N)n2C)c([N-]S(=O)(=O)N(C)C)c1.CCN(CC)c1ccc(N=Nc2nc(C#N)c(C#N)n2C)c([N-]S(=O)(=O)N(C)C)c1.[Co+2] [Example 16], which ε is on record?
The ε was 94990 L/mol/cm.

And the λ1/2-λ1/10?
Its λ1/2-λ1/10 is 33 nm.

And the λmax?
Its λmax is 543 nm.

For CCN(CC)c1ccc(N=Nc2nc(C#N)c(C#N)[nH]2)c([N-]S(=O)(=O)N(C)C)c1.CCN(CC)c1ccc(N=Nc2nc(C#N)c(C#N)[nH]2)c([N-]S(=O)(=O)N(C)C)c1.[Ni+2] [Example 18], which λmax (in methanol) is on record?
The λmax was 518^4) nm.

What about the ε [1] of the same molecule?
The ε was 92143 L/mol/cm.

What about the λ1/2-λ1/10 (on the long wavelength flank) of the same molecule?
Its λ1/2-λ1/10 is 21 nm.

For CCN(CC)c1ccc(N=Nc2nc(C#N)c(C#N)n2C)c([N-]P(=O)(OCC(F)(F)C(F)F)OCC(F)(F)C(F)F)c1.CCN(CC)c1ccc(N=Nc2nc(C#N)c(C#N)n2C)c([N-]P(=O)(OCC(F)(F)C(F)F)OCC(F)(F)C(F)F)c1.[Co+2] [Example 3], which ε is on record?
The ε was 92203 L/mol/cm.

And the λ1/2-λ1/10?
Its λ1/2-λ1/10 is 33 nm.

And the λmax?
The λmax was 538^5) nm.

For CCN(CC)c1ccc(N=Nc2nc(C#N)c(C#N)[nH]2)c([N-]P(=O)(OCC(F)(F)C(F)F)OCC(F)(F)C(F)F)c1.CCN(CC)c1ccc(N=Nc2nc(C#N)c(C#N)[nH]2)c([N-]P(=O)(OCC(F)(F)C(F)F)OCC(F)(F)C(F)F)c1.[Ni+2] [Example 5], which ε is on record?
The ε was 70893 L/mol/cm.

And the λ1/2-λ1/10?
The λ1/2-λ1/10 was 21 nm.

And the λmax?
The λmax was 510^4) nm.

With CCCNS(=O)(=O)[N-]c1cc(N(CC)CC)ccc1N=Nc1nc(C#N)c(C#N)[nH]1.CCCNS(=O)(=O)[N-]c1cc(N(CC)CC)ccc1N=Nc1nc(C#N)c(C#N)[nH]1.[Ni+2] [Example 6] as the molecule, how does the ε [1] read?
Its ε is 34523 L/mol/cm.

What about the λ1/2-λ1/10 (on the long wavelength flank) of the same molecule?
The λ1/2-λ1/10 was 21 nm.

What does the source list for CCN(CC)c1ccc(N=Nc2nc(C#N)c(C#N)n2C)c([N-]S(=O)(=O)N(C)C)c1.CCN(CC)c1ccc(N=Nc2nc(C#N)c(C#N)n2C)c([N-]S(=O)(=O)N(C)C)c1.[Ni+2] [Example 15]?
ε: 107238 L/mol/cm; λ1/2-λ1/10: 21 nm; λmax: 540 nm

With CCN(CC)c1cc([N]([Ni][N](c2cc(N(CC)CC)c(OC)cc2N=Nc2nc(-c3ccccc3)ns2)S(=O)(=O)N(C)C)S(=O)(=O)N(C)C)c(N=Nc2nc(-c3ccccc3)ns2)cc1OC [Example 35] as the molecule, how does the λmax read?
Its λmax is 544 nm.

Which ε does the source give for CCN(CC)c1ccc(N=Nc2nc(-c3ccccc3)ns2)c([N]([Ni][N](c2cc(N(CC)CC)ccc2N=Nc2nc(-c3ccccc3)ns2)P(=O)(OC)c2ccccc2)P(=O)(OC)c2ccccc2)c1 (centres unmarked) [Example 23] here?
Its ε is 90126 L/mol/cm.

And the λ1/2-λ1/10?
Its λ1/2-λ1/10 is 61 nm.

What about the λmax of the same molecule?
Its λmax is 538^5) nm.

For CCN(CC)c1ccc(N=Nc2nc(-c3ccccc3)ns2)c([N]([Ni][N](c2cc(N(CC)CC)ccc2N=Nc2nc(-c3ccccc3)ns2)S(=O)(=O)NCC(F)(F)C(F)F)S(=O)(=O)NCC(F)(F)C(F)F)c1 [Example 31], which λmax (in methylene chloride) is on record?
Its λmax is 556 nm.

For CCN(CC)c1ccc(N=Nc2nc(-c3ccccc3)ns2)c([N-]S(=O)(=O)N(C)C)c1.CCN(CC)c1ccc(N=Nc2nc(-c3ccccc3)ns2)c([N-]S(=O)(=O)N(C)C)c1.[Co+2] [Example 12], which ε is on record?
The ε was 92750 L/mol/cm.

And the λ1/2-λ1/10?
The λ1/2-λ1/10 was 32 nm.

And the λmax?
The λmax was 551 nm.

What does the source list for CCN(CC)c1ccc(N=Nc2nc(-c3ccccc3)ns2)c([N-]S(=O)(=O)N(C)C)c1.CCN(CC)c1ccc(N=Nc2nc(-c3ccccc3)ns2)c([N-]S(=O)(=O)N(C)C)c1.[Ni+2] [Example 11]?
ε: 86514 L/mol/cm; λmax: 530 nm
